The conditions of data set [1]: HPLC reversed-phase C 18; 40°C; 0.1% aqueous formic acid and acetonitrile, linear gradient 10% to 95% acetonitrile.
Excerpt: (§1) Die Kalibrierung wurde jeweils mit unverzweigten Alkan-2-onen (3 bis 16 Kohlenstoff Atome) mit bekannten logP Werten durchgeführt (Bestimmung von den logP Werten über die Retentionszeiten durch lineare Interpolation zwischen zwei bestimmten Alkanonen).

Excerpt for physchem: as §1

In the case of `Cc1nnc(Cl)c(-c2cccs2)c1-c1ccc(Cl)s1` [Beispiel 11, 3-Chlor-5-(5-chlor-2-thienyl)-4-(2-thienyl)-6-methylpyridazin], the log p in data set [1] is recorded as 3,56. This compound also registered a chromatographic logP in the data set “physchem” of 3.56.
Compound `Cc1n[nH]c(=O)c(-c2cccs2)c1-c1ccc(Cl)s1` [(4), 5-(5-Chlor-2-thienyl)-4-(2-thienyl)-6-methylpyridazin-3(2H)-on] came in with a chromatographic logP in “physchem” of 2.71.
With `CC1(O)OC(=O)C(c2cccs2)=C1c1ccc(Cl)s1` (stereo not shown) [(3), 4-(5-Chlor-2-thienyl)-3-(2-thienyl)-5-hydroxy-5-methylfuran-2(5H)-on], in the data set “physchem”, the chromatographic logP was 2.9.

The term chromatographic logP denotes lipophilicity estimated from chromatographic retention. Low values mean lower lipophilicity, high ones higher lipophilicity.

Values taken from patent EP1978023A1, “Pyridazines as fungicides” (Bayer CropScience Aktiengesellschaft, priority 2007, dated 2008).
